Experimental data from PubChem BioAssay (NCI).
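Briefly, cells in 96-well plates were exposed to five compound concentrations for 48 h, and endpoints were estimated by linear interpolation. The concentration for full growth arrest is given as TGI.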

Columns and labels:
Experiment in all cases: NCI-60 cell line screen, 48 h
CAKI-1 renal = tested on: CAKI-1 renal
SF-268 CNS = tested on: SF-268 CNS
MDA-N = tested on: MDA-N
SK-MEL-2 melanoma = tested on: SK-MEL-2 melanoma
OVCAR-8 ovarian = tested on: OVCAR-8 ovarian
DU-145 prostate = tested on: DU-145 prostate
UACC-62 melanoma = tested on: UACC-62 melanoma
NCI-H226 lung = tested on: NCI-H226 lung
OVCAR-4 ovarian = tested on: OVCAR-4 ovarian
HCT-15 colon = tested on: HCT-15 colon
HCC-2998 colon = tested on: HCC-2998 colon
MCF7 breast = tested on: MCF7 breast
HCT-116 colon = tested on: HCT-116 colon
M14 melanoma = tested on: M14 melanoma
U251 CNS = tested on: U251 CNS
TK-10 renal = tested on: TK-10 renal
SF-539 CNS = tested on: SF-539 CNS
MOLT-4 leukemia = tested on: MOLT-4 leukemia
T-47D breast = tested on: T-47D breast
LOX IMVI melanoma = tested on: LOX IMVI melanoma
SK-OV-3 ovarian = tested on: SK-OV-3 ovarian
CCRF-CEM leukemia = tested on: CCRF-CEM leukemia
EKVX NSCLC = tested on: EKVX NSCLC
K-562 leukemia = tested on: K-562 leukemia
OVCAR-3 ovarian = tested on: OVCAR-3 ovarian
A498 renal = tested on: A498 renal
RXF 393 renal = tested on: RXF 393 renal
SK-MEL-28 melanoma = tested on: SK-MEL-28 melanoma
RPMI-8226 leukemia = tested on: RPMI-8226 leukemia
SK-MEL-5 melanoma = tested on: SK-MEL-5 melanoma
UACC-257 melanoma = tested on: UACC-257 melanoma
HOP-62 NSCLC = tested on: HOP-62 NSCLC
ACHN renal = tested on: ACHN renal
NCI-H522 lung = tested on: NCI-H522 lung
NCI-H23 lung = tested on: NCI-H23 lung
HT29 colon = tested on: HT29 colon
SN12C renal = tested on: SN12C renal
KM12 colon = tested on: KM12 colon
SNB-75 CNS = tested on: SNB-75 CNS
HOP-92 NSCLC = tested on: HOP-92 NSCLC
MDA-MB-231 breast = tested on: MDA-MB-231 breast
MDA-MB-435 = tested on: MDA-MB-435
SR leukemia = tested on: SR leukemia
COLO 205 colon = tested on: COLO 205 colon
UO-31 renal = tested on: UO-31 renal
NCI/ADR-RES ovarian = tested on: NCI/ADR-RES ovarian
SW-620 colon = tested on: SW-620 colon
HS 578T breast = tested on: HS 578T breast
SNB-19 CNS = tested on: SNB-19 CNS
PC-3 prostate = tested on: PC-3 prostate
IGROV1 ovarian = tested on: IGROV1 ovarian
NCI-H460 lung = tested on: NCI-H460 lung
SF-295 CNS = tested on: SF-295 CNS
A549 NSCLC = tested on: A549 NSCLC
OVCAR-5 ovarian = tested on: OVCAR-5 ovarian
MALME-3M melanoma = tested on: MALME-3M melanoma
786-0 renal = tested on: 786-0 renal
HL-60(TB) leukemia = tested on: HL-60(TB) leukemia
BT-549 breast = tested on: BT-549 breast

CC(C)(C)OC(=O)NC(Cc1ccc(OC(C)(C)C)cc1)C(=O)N[C@H]1CCC[C@H]1C(=O)NC(Cc1ccccc1)C(=O)N1CCCC1C(N)=O (stereo not given in full)
TGI (CAKI-1 renal): > 100 µM
TGI (SF-268 CNS): > 100 µM
TGI (MDA-N): > 100 µM
TGI (SK-MEL-2 melanoma): > 100 µM
TGI (OVCAR-8 ovarian): > 100 µM
TGI (DU-145 prostate): > 100 µM
TGI (UACC-62 melanoma): > 100 µM
TGI (NCI-H226 lung): > 100 µM
TGI (OVCAR-4 ovarian): > 100 µM
TGI (HCT-15 colon): > 100 µM
TGI (HCC-2998 colon): > 100 µM
TGI (MCF7 breast): > 100 µM
TGI (HCT-116 colon): > 100 µM
TGI (M14 melanoma): > 100 µM
TGI (U251 CNS): > 100 µM
TGI (TK-10 renal): > 100 µM
TGI (SF-539 CNS): > 100 µM
TGI (MOLT-4 leukemia): > 100 µM
TGI (T-47D breast): > 100 µM
TGI (LOX IMVI melanoma): > 100 µM
TGI (SK-OV-3 ovarian): > 100 µM
TGI (CCRF-CEM leukemia): > 100 µM
TGI (EKVX NSCLC): > 100 µM
TGI (K-562 leukemia): > 100 µM
TGI (OVCAR-3 ovarian): > 100 µM
TGI (A498 renal): > 100 µM
TGI (RXF 393 renal): > 100 µM
TGI (SK-MEL-28 melanoma): > 100 µM
TGI (RPMI-8226 leukemia): > 100 µM
TGI (SK-MEL-5 melanoma): > 100 µM
TGI (UACC-257 melanoma): > 100 µM
TGI (HOP-62 NSCLC): > 100 µM
TGI (ACHN renal): > 100 µM
TGI (NCI-H522 lung): > 100 µM
TGI (NCI-H23 lung): > 100 µM
TGI (HT29 colon): > 100 µM
TGI (SN12C renal): > 100 µM
TGI (KM12 colon): > 100 µM
TGI (SNB-75 CNS): > 100 µM
TGI (HOP-92 NSCLC): > 100 µM
TGI (MDA-MB-231 breast): > 100 µM
TGI (MDA-MB-435): > 100 µM
TGI (SR leukemia): > 100 µM
TGI (COLO 205 colon): > 100 µM
TGI (UO-31 renal): > 100 µM
TGI (NCI/ADR-RES ovarian): > 100 µM
TGI (SW-620 colon): > 100 µM
TGI (HS 578T breast): > 100 µM
TGI (SNB-19 CNS): > 100 µM
TGI (PC-3 prostate): > 100 µM
TGI (IGROV1 ovarian): > 100 µM
TGI (NCI-H460 lung): > 100 µM
TGI (SF-295 CNS): > 100 µM
TGI (A549 NSCLC): > 100 µM
TGI (OVCAR-5 ovarian): > 100 µM
TGI (MALME-3M melanoma): > 100 µM
TGI (786-0 renal): > 100 µM

CC(C)CC(NC(=O)C(CI)Cc1ccccc1)C(=O)Nc1ccccc1 (stereo not given)
TGI (CAKI-1 renal): > 100 µM
TGI (MDA-N): > 100 µM
TGI (SK-MEL-2 melanoma): > 100 µM
TGI (OVCAR-8 ovarian): > 100 µM
TGI (DU-145 prostate): > 100 µM
TGI (UACC-62 melanoma): > 100 µM
TGI (OVCAR-4 ovarian): > 100 µM
TGI (HCT-15 colon): > 100 µM
TGI (HCC-2998 colon): > 100 µM
TGI (MCF7 breast): > 100 µM
TGI (HCT-116 colon): > 100 µM
TGI (M14 melanoma): > 100 µM
TGI (U251 CNS): > 100 µM
TGI (TK-10 renal): > 100 µM
TGI (SF-539 CNS): > 100 µM
TGI (MOLT-4 leukemia): > 100 µM
TGI (LOX IMVI melanoma): > 100 µM
TGI (SK-OV-3 ovarian): > 100 µM
TGI (CCRF-CEM leukemia): > 100 µM
TGI (EKVX NSCLC): > 100 µM
TGI (K-562 leukemia): > 100 µM
TGI (OVCAR-3 ovarian): > 100 µM
TGI (A498 renal): > 100 µM
TGI (RXF 393 renal): > 100 µM
TGI (SK-MEL-28 melanoma): > 100 µM
TGI (RPMI-8226 leukemia): > 100 µM
TGI (SK-MEL-5 melanoma): > 100 µM
TGI (UACC-257 melanoma): > 100 µM
TGI (ACHN renal): > 100 µM
TGI (NCI-H522 lung): > 100 µM
TGI (NCI-H23 lung): > 100 µM
TGI (SN12C renal): > 100 µM
TGI (KM12 colon): > 100 µM
TGI (SNB-75 CNS): > 100 µM
TGI (HOP-92 NSCLC): > 100 µM
TGI (MDA-MB-231 breast): > 100 µM
TGI (MDA-MB-435): > 100 µM
TGI (SR leukemia): > 100 µM
TGI (COLO 205 colon): > 100 µM
TGI (UO-31 renal): > 100 µM
TGI (NCI/ADR-RES ovarian): > 100 µM
TGI (SW-620 colon): > 100 µM
TGI (SNB-19 CNS): > 100 µM
TGI (PC-3 prostate): > 100 µM
TGI (IGROV1 ovarian): > 100 µM
TGI (HL-60(TB) leukemia): > 100 µM
TGI (NCI-H460 lung): > 100 µM
TGI (SF-295 CNS): > 100 µM
TGI (A549 NSCLC): > 100 µM
TGI (OVCAR-5 ovarian): > 100 µM
TGI (BT-549 breast): 57 µM
TGI (MALME-3M melanoma): > 100 µM
TGI (786-0 renal): > 100 µM
